Data taken from EPA's aquatic toxicity sets.

Key:
[1] = system: Pimephales promelas; assay: 96 h LC50 (-log10 mol/L); higher = more toxic
[2] = system: Tetrahymena pyriformis; assay: 48 h IGC50 (-log10 mol/L); higher = more toxic

Row | Structure (SMILES) | 96 h LC50 (-log10 mol/L) [1] | 48 h IGC50 (-log10 mol/L) [2]
1 | CC(=O)c1cccn1C | 2.9 | 2.31
2 | Cc1cccc(O)c1 | 3.29 | 2.92
3 | CCCCC(CC)CO (stereo not given) | 3.66 | 3.17
4 | Oc1ccc(Cl)cc1O | 4.96 | 4.06
5 | CC(C)CC=O | 4.42 | 2.67
6 | Nc1cc([N+](=O)[O-])cc([N+](=O)[O-])c1 | 3.93 | 3.94
7 | C=CCCl | 3.55 | 2.06
8 | N#CC(Br)Br | 5.56 | 5.4
9 | Cc1ccncc1 | 2.36 | 2.12
10 | Oc1cccc(O)c1 | 3.3 | 2.35
11 | CC(=O)CCC=C(C)C | 3.17 | 2.55
12 | CC=NO | 2.89 | 1.39
13 | Oc1ccccc1O | 4.29 | 3.75
14 | CCCC(C)=O | 1.84 | 1.78
15 | C=CCO | 5.26 | 1.08
16 | NC(=O)c1ccc(Cl)cc1Cl | 3.3 | 2.64
17 | N#CCC#N | 5.07 | 3.22
18 | CC(O)CO (stereo not given) | 0.349 | 0.49
19 | ClC(Cl)(Cl)Cl | 3.57 | 2.98
20 | CC(C)c1cccc(C(C)C)c1N | 4.1 | 3.76
21 | c1ccc2cnncc2c1 | 3.11 | 2.66
22 | CCC(C)(C)c1ccc(O)cc1 | 4.8 | 4.23
23 | CCOc1cc(C=O)ccc1O | 3.28 | 3.02

Row | Structure (SMILES) | 96 h LC50 (-log10 mol/L) [1] | 48 h IGC50 (-log10 mol/L) [2]
24 | O=Cc1cc(Cl)ccc1O | 5.31 | 4.01
25 | O=[N+]([O-])c1ccc(Oc2ccccc2)cc1 | 4.91 | 4.58
26 | C=COC(C)=O | 3.57 | 2.14
27 | CC(=O)CC(C)C | 2.27 | 1.79
28 | c1ccoc1 | 3.05 | 1.35
29 | CCCCCCCCCCCO | 5.22 | 4.96
30 | O=C1CCCCC1 | 2.19 | 1.77
31 | CCCOC(C)=O | 3.23 | 1.76
32 | C=CCc1ccccc1O | 3.98 | 3.33
33 | CC(=O)C(C)(C)C | 3.06 | 1.56
34 | CCOC(=O)CC(=O)OCC | 4.02 | 2
35 | CCCCC=O | 3.83 | 2.98
36 | C#CCO | 4.56 | 1.93
37 | Cc1cccc(Cl)n1 | 2.74 | 2.52
38 | O=Cc1ccc(O)cc1O | 4.02 | 3.52
39 | Oc1cccnc1Cl | 2.32 | 2.99
40 | COC(C)=O | 2.27 | 1.41
41 | N#Cc1cccc([N+](=O)[O-])c1 | 3.39 | 3.45
42 | Nc1ccc(F)cc1C(F)(F)F | 3.78 | 2.98
43 | N#Cc1ccc([N+](=O)[O-])cc1 | 3.78 | 3.57
44 | CO | 0.056 | 0.334
45 | O=[N+]([O-])c1cccc(Cl)c1 | 3.93 | 3.73
